Reference: ChEMBL document CHEMBL3232785, “Basic quinolinonyl diketo acid derivatives as inhibitors of HIV integrase and their activity against RNase H function of reverse transcriptase” (J Med Chem, 2014)
Active and inactive are the calls of the source. The rule behind the calls is not given here.

Assays:
[1] = tested on: Human immunodeficiency virus 1; test: Antiviral activity against HIV1 3B infected in human HeLa cells expressing CD4-LTR-beta-gal assessed as inhibition of viral replication after 3 days by reporter gene assay; assay type: functional, organism-based; conditions: Human immunodeficiency virus 1, 3B, 72 h
[2] = target: T1, Human immunodeficiency virus type 1 integrase (Human immunodeficiency virus 1, UniProt Q7ZJM1); test: Inhibition of HIV1 integrase strand transfer activity by gel-based assay
T1 sequence (Q7ZJM1 whole entry): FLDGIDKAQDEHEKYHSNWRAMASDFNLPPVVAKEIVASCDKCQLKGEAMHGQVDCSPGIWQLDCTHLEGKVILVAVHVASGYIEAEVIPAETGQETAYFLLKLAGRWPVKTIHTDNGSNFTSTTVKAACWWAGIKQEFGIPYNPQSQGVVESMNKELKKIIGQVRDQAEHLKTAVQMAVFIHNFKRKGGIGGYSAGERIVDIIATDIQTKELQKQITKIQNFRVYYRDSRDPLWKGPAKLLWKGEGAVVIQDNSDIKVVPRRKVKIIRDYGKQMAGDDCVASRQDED

[3] = target: T1, Human immunodeficiency virus type 1 integrase; test: Inhibition of HIV1 integrase 3'-processing activity by gel-based assays
HeLa = test: Cytotoxicity against human HeLa cells expressing CD4-LTR-beta-gal after 24 hrs by ATPlite assay; assay type: cell-based
[4] = target: Human immunodeficiency virus type 1 reverse transcriptase (Human immunodeficiency virus 1, UniProt Q72547); test: Inhibition of HIV1 RNase H function of recombinant reverse transcriptase using an 18-nt 3'-fluorescein-labeled RNA annealed to complementary 18-nt 5'-dabsyl-labeled DNA as substrate after 10 mins by fluorescence spectrometer analysis
[5] = target: Human immunodeficiency virus type 1 reverse transcriptase (Human immunodeficiency virus 1) (UniProt Q72547); test: Inhibition of HIV1 polymerase function of reverse transcriptase up to 40 uM
in vitro = conditions: human, HeLa cells expressing CD4-LTR-beta-gal
Description: Selectivity index, ratio of CC50 for human HeLa cells expressing CD4-LTR-beta-gal to EC50 for HIV1 3B

| SMILES | EC50 [1] [µM] | IC50 [2] [µM] | IC50 [3] [µM] | CC50 (HeLa) [µM] | IC50 [4] [µM] | inhibition [5] | selectivity ratio (in vitro) |
| --- | --- | --- | --- | --- | --- | --- | --- |
| CCOC(=O)/C(O)=C/C(=O)c1cn(Cc2ccc(F)cc2)c2cc(N3CCCC3)ccc2c1=O | – | – | – | > 50 | – | – | – |
| O=C(O)/C(O)=C/C(=O)c1cn(Cc2ccc(F)cc2)c2cc(N3CCN(CCCCl)CC3)ccc2c1=O | > 50 | 0.05 | 4.6 | – | 5.7 | inactive | – |
| Cc1nnc(C(=O)NC(C)(C)c2nc(C(=O)NCc3ccc(F)cc3)c(O)c(=O)n2C)o1 | – | – | – | > 50 | – | – | – |
| COc1cc2c(cc1Cc1cccc(Cl)c1F)c(=O)c(C(=O)O)cn2[C@H](CO)C(C)C | 0.0142 | – | – | > 50 | – | – | – |
| O=C(O)/C(O)=C/C(=O)c1cn(Cc2ccc(F)cc2)c2cc(N3CCCC3)ccc2c1=O | – | – | – | > 50 | 5.1 | inactive | – |
| CCOC(=O)/C(O)=C/C(=O)c1cn(Cc2ccc(F)cc2)c2cc(N3CCN(C)CC3)ccc2c1=O | – | – | – | > 50 | – | – | – |
| O=C(O)/C(O)=C/C(=O)c1cn(Cc2ccc(F)cc2)c2cc(N3CCOCC3)ccc2c1=O | 26.3 | 0.08 | 13 | > 50 | 6.8 | inactive | > 1.9 |
| CC(=O)N1CCN(c2ccc3c(=O)c(C(=O)/C=C(\O)C(=O)O)cn(Cc4ccc(F)cc4)c3c2)CC1 | – | – | – | > 50 | – | – | – |
| CCOC(=O)/C(O)=C/C(=O)c1cn(Cc2ccc(F)cc2)c2cc(N3CCN(CC)CC3)ccc2c1=O | – | – | – | > 50 | – | – | – |

The next lines start with results.

| EC50 [1] [µM] | IC50 [2] [µM] | IC50 [3] [µM] | SMILES | CC50 (HeLa) [µM] | IC50 [4] [µM] | inhibition [5] | selectivity ratio (in vitro) |
| --- | --- | --- | --- | --- | --- | --- | --- |
| > 50 | 0.21 | 23 | CCN1CCN(c2ccc3c(=O)c(C(=O)/C=C(\O)C(=O)O)cn(Cc4ccc(F)cc4)c3c2)CC1 | – | – | – | – |
| > 50 | 0.36 | 30 | O=C(O)/C(O)=C/C(=O)c1cn(Cc2ccc(F)cc2)c2cc(N3CCSCC3)ccc2c1=O | – | – | – | – |
| > 50 | – | – | CN(C)c1ccc2c(=O)c(C(=O)/C=C(\O)C(=O)O)cn(Cc3ccc(F)cc3)c2c1 | – | – | – | – |
| > 50 | – | – | O=C(O)/C(O)=C/C(=O)c1cn(Cc2ccc(F)cc2)c2cc(N3CCNCC3)ccc2c1=O | – | – | – | – |
| > 50 | 2.9 | 41 | CCOC(=O)/C(O)=C/C(=O)c1cn(Cc2ccc(F)cc2)c2cc(N(C)C)ccc2c1=O | – | – | – | – |
| 20.9 | 24 | > 333 | CCOC(=O)/C(O)=C/C(=O)c1cn(Cc2ccc(F)cc2)c2cc(N3CCNCC3)ccc2c1=O | > 50 | – | – | > 2.4 |
| 16.2 | 2.1 | > 111 | CCOC(=O)/C(O)=C/C(=O)c1cn(Cc2ccc(F)cc2)c2cc(N3CCOCC3)ccc2c1=O | > 50 | – | – | > 3 |
| > 50 | 0.1 | 8.5 | CN1CCN(c2ccc3c(=O)c(C(=O)/C=C(\O)C(=O)O)cn(Cc4ccc(F)cc4)c3c2)CC1 | – | – | – | – |
| 13.2 | 1.3 | 102 | CCOC(=O)/C(O)=C/C(=O)c1cn(Cc2ccc(F)cc2)c2cc(N3CCN(CCCCl)CC3)ccc2c1=O | > 50 | – | – | > 3.7 |
| > 50 | 0.17 | 17 | CCOC(=O)/C(O)=C/C(=O)c1cn(Cc2ccc(F)cc2)c2cc(N3CCN(C(C)=O)CC3)ccc2c1=O | – | – | – | – |
